Reference: ChEMBL document CHEMBL5724696, “Autophagy assay results for EUbOPEN Chemogenomics Library” (2024)
Values joined by “and” are separate entries in the source; they are usually repeats but may differ in a detail not shown here. Identical values can stand only once.

Legend:
Format in all cases: functional, Homo sapiens
[1] = tested on: TERT-RPE1; test: (§1) Here: values are normalized to the negative (DMSO; defined as 0% autophagy induction) and positive (250nM Torin1; mTOR inhibitor; defined as maximal inducer of autophagy = 100%) control compounds and represented as % of autophagy induction. […] The impact of autophagy induction on cells is complex and depends on the affected target. As such, the magnitude of a phenotype may not be equally mirrored in the %-value of autophagy induction and vice versa. The dynamics of the induction may indicate the mode of activation: e.g. activation via phosphorylation or a signaling cascade may occur fast, while activation via transcription factors may take considerably longer. […] Of note, treatment concentrations may be sub-optimal for specific compounds, leading to false negative annotations.; conditions: Culturing Media DMEM/F12 (1:1), 1 % Penicillin/Streptomycin, 10% Fetal bovin serum Add-On: No, Screening Media Control DMEM/F12 (1:1), Screening Media Samples DMEM/F12 (1:1)
[2] = tested on: U2OS; test: as §1; conditions: Culturing Media DMEM, 1 % Penicillin/Streptomycin, 10% Fetal bovin serum Add-On: No, Screening Media Control DMEM, Screening Media Samples DMEM
[3] = tested on: U2OS; test: as §1; conditions: Culturing Media DMEM, 1 % Penicillin/Streptomycin, 10% Fetal bovin serum Add-On: No, Screening Media Control DMEM, Screening Media Samples DMEM; remark: listed apart in the source
[4] = Compound Concentration 0.5 uM, Timepoint 12 hours, 12 h, 0.5 µM
[5] = Compound Concentration 0.5 uM, Timepoint 24 hours, 24 h, 0.5 µM
[6] = Compound Concentration 0.5 uM, Timepoint 36 hours, 36 h, 0.5 µM
[7] = Compound Concentration 0.5 uM, Timepoint 60 hours, 60 h, 0.5 µM
[8] = Compound Concentration 2 uM, Timepoint 12 hours, 12 h, 2 µM
[9] = Compound Concentration 2 uM, Timepoint 24 hours, 24 h, 2 µM
[10] = Compound Concentration 2 uM, Timepoint 36 hours, 36 h, 2 µM
[11] = Compound Concentration 2 uM, Timepoint 60 hours, 60 h, 2 µM
[12] = Compound Concentration 10 uM, Timepoint 12 hours, 12 h, 10 µM
[13] = Compound Concentration 10 uM, Timepoint 24 hours, 24 h, 10 µM
[14] = Compound Concentration 10 uM, Timepoint 36 hours, 36 h, 10 µM
[15] = Compound Concentration 10 uM, Timepoint 60 hours, 60 h, 10 µM
[16] = Compound Concentration 0.5 uM, Timepoint 12 hours
[17] = Compound Concentration 0.5 uM, Timepoint 24 hours
[18] = Compound Concentration 0.5 uM, Timepoint 36 hours
[19] = Compound Concentration 0.5 uM, Timepoint 60 hours
[20] = Compound Concentration 2 uM, Timepoint 12 hours
[21] = Compound Concentration 2 uM, Timepoint 24 hours
[22] = Compound Concentration 2 uM, Timepoint 36 hours
[23] = Compound Concentration 2 uM, Timepoint 60 hours
[24] = Compound Concentration 10 uM, Timepoint 12 hours
[25] = Compound Concentration 10 uM, Timepoint 24 hours
[26] = Compound Concentration 10 uM, Timepoint 36 hours
[27] = Compound Concentration 10 uM, Timepoint 60 hours

Cl.Clc1cccc(COc2cncc(N3CCNCC3)n2)c1
autophagy induction [1, 4]: -4.107% and -8.741% | autophagy induction [1, 5]: -3.275% and -10.2873% | autophagy induction [1, 6]: -5.346% and -10.5791% | autophagy induction [1, 7]: -7.219% and -10.0498% | autophagy induction [1, 8]: 0.7021% and -1.765% | autophagy induction [1, 9]: 0.6926% and -5.584% | autophagy induction [1, 10]: 0.3671% and -11.5088% | autophagy induction [1, 11]: -2.572% and -13.6901% | autophagy induction [1, 12]: 10.122% and -0.2214% | autophagy induction [1, 13]: 9.832% and 0.1054% | autophagy induction [1, 14]: 9.982% and -0.986% | autophagy induction [1, 15]: 11.761% and 2.73% | autophagy induction [2, 16]: 7.085% | autophagy induction [2, 17]: -1.5773% | autophagy induction [2, 18]: -58.983% | autophagy induction [2, 19]: -0.334% | autophagy induction [2, 20]: 2.459% | autophagy induction [2, 21]: 2.019% | autophagy induction [2, 22]: -56.8827% | autophagy induction [2, 23]: 0.5358% | autophagy induction [2, 24]: -3.089% | autophagy induction [2, 25]: 5.923% | autophagy induction [2, 26]: -56.0685% | autophagy induction [2, 27]: -1.858% | autophagy induction [3, 16]: -8.837% | autophagy induction [3, 17]: -13.8803% | autophagy induction [3, 18]: -7.736% | autophagy induction [3, 19]: -11.4823% | autophagy induction [3, 20]: 2.897% | autophagy induction [3, 21]: 5.801% | autophagy induction [3, 22]: -1.494% | autophagy induction [3, 23]: -5.088% | autophagy induction [3, 24]: 27.4058% | autophagy induction [3, 25]: 16.7462% | autophagy induction [3, 26]: 7.428% | autophagy induction [3, 27]: 3.616%

C[C@@H](NCCc1ccc(O)cc1)[C@@H](O)c1ccc(O)cc1.Cl (relative stereo)
autophagy induction [1, 4]: 5.631% and 0.2084% | autophagy induction [1, 5]: 6.073% and -4.011% | autophagy induction [1, 6]: 3.7656% and -2.603% | autophagy induction [1, 7]: -3.104% and -1.391% | autophagy induction [1, 8]: 5.905% and 3.931% | autophagy induction [1, 9]: 4.872% and 1.792% | autophagy induction [1, 10]: 4.017% and -0.1457% | autophagy induction [1, 11]: -2.448% and 5.167% | autophagy induction [1, 12]: -0.5838% and 12.3967% | autophagy induction [1, 13]: -3.853% and 16.5093% | autophagy induction [2, 16]: -6.804% | autophagy induction [2, 17]: -1.218% | autophagy induction [2, 18]: -57.9641% | autophagy induction [2, 19]: 0.9422% | autophagy induction [2, 20]: -7.529% | autophagy induction [2, 21]: -0.8348% | autophagy induction [2, 22]: -57.3104% | autophagy induction [2, 23]: -0.1418% | autophagy induction [2, 24]: -2.903% | autophagy induction [2, 25]: -0.1533% | autophagy induction [2, 26]: -57.4385% | autophagy induction [2, 27]: 1.624% | autophagy induction [3, 16]: 14.7038% | autophagy induction [3, 17]: 0.5598% | autophagy induction [3, 18]: 0.6043% | autophagy induction [3, 19]: -0.5871% | autophagy induction [3, 20]: 18.1678% | autophagy induction [3, 21]: -0.878% | autophagy induction [3, 22]: -8.358% | autophagy induction [3, 23]: -12.0518% | autophagy induction [3, 24]: -0.9523% | autophagy induction [3, 25]: -16.8429% | autophagy induction [3, 26]: -21.0427% | autophagy induction [3, 27]: -26.9578%

CN1CCCC(n2nc(Cc3ccc(Cl)cc3)c3ccccc3c2=O)CC1.Cl (stereo not given) [AZELASTINE HYDROCHLORIDE]
autophagy induction [1, 4]: -4.87% and -1.0131% | autophagy induction [1, 5]: -4.869% and -0.0662% | autophagy induction [1, 6]: -3.53% and 2.514% | autophagy induction [1, 7]: -2.083% and 5.845% | autophagy induction [1, 8]: 2.2259% and 11.1438% | autophagy induction [1, 9]: 1.534% and 9.267% | autophagy induction [1, 10]: 3.816% and 8.147% | autophagy induction [1, 12]: 7.066% and 3.619% | autophagy induction [1, 13]: 11.8407% and 4.087% | autophagy induction [1, 14]: 14.8577% and 6.608% | autophagy induction [1, 15]: 14.3498% and 13.0687% | autophagy induction [2, 16]: -1.752% | autophagy induction [2, 17]: -3.995% | autophagy induction [2, 18]: 606.483% | autophagy induction [2, 19]: -3.291% | autophagy induction [2, 20]: -6.53% | autophagy induction [2, 21]: -3.506% | autophagy induction [2, 22]: -60.9405% | autophagy induction [2, 23]: -3.3303% | autophagy induction [2, 24]: -10.1026% | autophagy induction [2, 25]: -0.8464% | autophagy induction [2, 26]: -60.027% | autophagy induction [2, 27]: -3.2037% | autophagy induction [3, 16]: 28.6217% | autophagy induction [3, 17]: 20.8368% | autophagy induction [3, 18]: 11.7893% | autophagy induction [3, 19]: 4.08% | autophagy induction [3, 20]: -10.9736% | autophagy induction [3, 21]: -5.743% | autophagy induction [3, 22]: -1.742% | autophagy induction [3, 23]: -7.358% | autophagy induction [3, 24]: 1.941% | autophagy induction [3, 25]: 10.8687% | autophagy induction [3, 26]: 9.578% | autophagy induction [3, 27]: 17.8748%
